Assay results published in patent US20220125959A1, “PROSTATE-SPECIFIC MEMBRANE ANTIGEN (PSMA) INHIBITORS AS DIAGNOSTIC AND RADIONUCLIDE THERAPEUTIC AGENTS” (FIVE ELEVEN PHARMA INC., priority 2019, published 2022).
Several values for one entry are separate records, joined by “and”; a condition that tells them apart may be missing. Equal values may be shown once.

Tests used:
[1] = system: PSMA-positive cell line, PIP PC3; test: In vitro cell uptake, PIP PC3 cells; format: cell-based
Method: To determine the cell uptakes of the [^177Lu] labelled ligands, 5×10^5 cells/well were grown in 12-well plates in 1 mL of medium for 48 h. The cells were washed twice with PBS, and 900 μL fresh media were added. […] All samples were prepared in triplicate. Following the incubation at 37° C., cells were washed twice to remove unbound activity and afterwards lysed in 1 mL of 0.5 M NaOH. Activity was measured in a gamma counter. Aliquots of the solution added to the cells were also measured for the calculation of the cellular uptake as % ID.

[2] = system: PSMA-negative cell line, PC3; test: In vitro cell uptake, PC3 cells; format: cell-based; details: PC3 (do not express PSMA), 60 min
Method: To determine the cell uptakes of the [^177Lu] labelled ligands, 5×10^5 cells/well were grown in 12-well plates in 1 mL of medium for 48 h. The cells were washed twice with PBS, and 900 μL fresh media were added. Radiolabelled ligand was added and the PSMA-inhibitor (2-PMPA) was applied in a final concentration of 10 μM to determine unspecific binding. All samples were prepared in triplicate. Following the incubation at 37° C., cells were washed twice to remove unbound activity and afterwards lysed in 1 mL of 0.5 M NaOH. Activity was measured in a gamma counter. Aliquots of the solution added to the cells were also measured for the calculation of the cellular uptake as % ID.

[3] = system: PC3-PIP (PSMA positive) and PC-3 tumors (PSMA negative); test: Biodistribution of 177Lu labeled compounds 4 and 7 in tumor bearing nude mice; format: in vivo, CD-1 male nude mice
Method: (§1) ^177Lu labeling: To 10 μg ligand (1 mg/mL DMSO) were added 15 μL of 2.0 N NaOAc, 400 μL 0.05 N HCl, and 20 μL ^177Lu-solution (780 μCi (Capintec setting 450 (reading×10)). The reaction was heated with a heating block at 95° C. for 1 hour in a 3 mL closed vial. After cooling, the sample was analyzed by HPLC (HPLC: Eclipse XDB-C18 150×4.6 mm, gradient, 1 mL/min; A: 0.1% TFA in water; B: 0.1% TFA in ACN: 0-4 min A/B 85/15%; 4-11 min: from 85/15 to 30/70%; 11-14 min: from 30/70% to 85/15%). Radiochemical purity of [^177Lu]4 (FIG. 2) and [^177Lu]7 was >98% and injected doses were stable at 48 hr after formulation.
(§2) For iv injection 150 μL of labeled solution was diluted with saline to 3.75mL. Mice were injected with 150 μL of formulated dose. Injected radioactivity was 100 μCi and PSMA ligand amount was constant at 0.72 nmole/mouse.
Biodistribution of [^68Ga]4, [^177Lu]4 and [^177Lu]7 was determined in nude mice bearing PIP PC3 (PSMA positive) and PC3 (PSMA negative) tumors on the left and right shoulder, respectively, over a period of 192 h (Table 3a, 3b and 3c). […] The uptake in PC3 tumors (PSMA negative) of both ligands, [^177Lu]4 and [^177Lu]7, was clearly much lower than those of PC-3 PIP tumors (PSMA positive).

[4] = Stability of injected doses after formulation; format: physicochemical; details: at 48 hr after formulation
Method: ^68Ga labeling: To 15 nmole ligand 4 (1 mg/mL DMSO) were added 20 μL of 2.0 N NaOAc, 500 μL ^68Ga-solution (2.25 mCi). The reaction was heated in a heating block at 90° C. for 10 minutes in a 3 mL closed vial. After cooling, the sample was analyzed by HPLC (HPLC: Eclise XDB C18 150×4.6 mm, gradient, 2 mL/min; A: 0.1% TFA in water; B: 0.1% TFA in ACN: 0-2 min 100% A; 2-4 min: from 0% to 100% B; 4-9 min: 100% B; 9-10 min: from 100% to 0% B). Radiochemical purity of [^68Ga]4 was >99% RCP (FIG. 1) and injected doses were stable at 2 hr after formulation.
as §1, §2

O=C(O)CCC(C(=O)O)N1CCN(CC(=O)O)CCN(C(CCC(=O)NCC(=O)N[C@@H](Cc2ccc(OCC(=O)N[C@@H](Cc3ccccc3)C(=O)NCCCC[C@H](NC(=O)N[C@@H](CCC(=O)O)C(=O)O)C(=O)O)cc2)C(=O)O)C(=O)O)CCN(CC(=O)O)CC1.[177Lu] (stereo partly shown) [[^177Lu]4]
Uptakes compared with reference ligand [177Lu]PSMA-617 ([1]; PIP PC3): much higher uptakes | In vitro cell uptake ([1]; PIP PC3, 5 min): 4.0 % ID per 5 × 10^5 cells | In vitro cell uptake ([1]; PIP PC3, 15 min): 7.5 % ID per 5 × 10^5 cells | In vitro cell uptake ([1]; PIP PC3, 30 min): 11.2 % ID per 5 × 10^5 cells | In vitro cell uptake ([1]; PIP PC3, 60 min): 13.4 % ID per 5 × 10^5 cells | In vitro cell uptake ([1]; PIP PC3, 60 min, with PSMA inhibitor (2-PMPA, 2 uM)): 0.9 % ID per 5 × 10^5 cells | In vitro cell uptake ([1]; PIP PC3, 120 min): 14.9 % ID per 5 × 10^5 cells | In vitro cell uptake [2]: 0.4 % ID per 5 × 10^5 cells | Biodistribution: Blood ([3]; 1 hr): 0.27 ± 0.07 % dose/g | Biodistribution: Bone ([3]; 1 hr): 0.15 ± 0.05 % dose/g | Biodistribution: Brain ([3]; 1 hr): 0.02 ± 0.01 % dose/g | Biodistribution: Heart ([3]; 1 hr): 0.17 ± 0.03 % dose/g | Biodistribution: Intestine ([3]; 1 hr): 0.19 ± 0.08 % dose/g | Biodistribution: Kidney ([3]; 1 hr): 45.59 ± 20.51 % dose/g | Biodistribution: Liver ([3]; 1 hr): 0.18 ± 0.05 % dose/g | Biodistribution: Lung ([3]; 1 hr): 0.63 ± 0.13 % dose/g | Biodistribution: Muscle ([3]; 1 hr): 0.18 ± 0.06 % dose/g | Biodistribution: PC3 tumor ([3]; 1 hr): 1.13 ± 0.61 % dose/g | Biodistribution: PIP PC3 tumor ([3]; 1 hr): 15.27 ± 2.93 % dose/g | Biodistribution: Pancreas ([3]; 1 hr): 0.43 ± 0.20 % dose/g | Biodistribution: Skin ([3]; 1 hr): 0.35 ± 0.07 % dose/g | Biodistribution: Spleen ([3]; 1 hr): 1.42 ± 1.44 % dose/g | Biodistribution: Stomach ([3]; 1 hr): 0.20 ± 0.10 % dose/g | Biodistribution: Blood ([3]; 4 hrs): 0.02 % dose/g and 0.02 ± 0.01 % dose/g | Biodistribution: Bone ([3]; 4 hrs): 0.05 ± 0.01 % dose/g | Biodistribution: Brain ([3]; 4 hrs): 0.01 ± 0.00 % dose/g | Biodistribution: Heart ([3]; 4 hrs): 0.11 ± 0.07 % dose/g | Biodistribution: Intestine ([3]; 4 hrs): 0.21 ± 0.11 % dose/g | Biodistribution: Kidney ([3]; 4 hrs): 21.17 ± 5.08 % dose/g | Biodistribution: Liver ([3]; 4 hrs): 0.09 ± 0.03 % dose/g | Biodistribution: Lung ([3]; 4 hrs): 0.20 ± 0.05 % dose/g | Biodistribution: Muscle ([3]; 4 hrs): 0.05 ± 0.01 % dose/g | Biodistribution: PC3 tumor ([3]; 4 hrs): 0.28 ± 0.08 % dose/g | Biodistribution: PIP PC3 tumor ([3]; 4 hrs): 22.38±3.50 % dose/g | Biodistribution: Pancreas ([3]; 4 hrs): 0.18 ± 0.10 % dose/g | Biodistribution: Skin ([3]; 4 hrs): 0.12 ± 0.05 % dose/g | Biodistribution: Spleen ([3]; 4 hrs): 0.53 ± 0.26 % dose/g | Biodistribution: Stomach ([3]; 4 hrs): 0.12 ± 0.02 % dose/g | Biodistribution: Blood ([3]; 24 hrs (1 day)): 0.002 ± 0.000 % dose/g | Biodistribution: Bone ([3]; 24 hrs (1 day)): 0.022 ± 0.010 % dose/g | Biodistribution: Brain ([3]; 24 hrs (1 day)): 0.006 ± 0.001 % dose/g | Biodistribution: Heart ([3]; 24 hrs (1 day)): 0.011 ± 0.002 % dose/g | Biodistribution: Intestine ([3]; 24 hrs (1 day)): 0.132 ± 0.114 % dose/g | Biodistribution: Kidney ([3]; 24 hrs (1 day)): 2.291 ± 0.761 % dose/g | Biodistribution: Liver ([3]; 24 hrs (1 day)): 0.036 ± 0.003 % dose/g | Biodistribution: Lung ([3]; 24 hrs (1 day)): 0.024 ± 0.005 % dose/g | Biodistribution: Muscle ([3]; 24 hrs (1 day)): 0.012 ± 0.003 % dose/g | Biodistribution: PC3 tumor ([3]; 24 hrs (1 day)): 0.071 ± 0.010 % dose/g | Biodistribution: PIP PC3 tumor ([3]; 24 hrs (1 day)): 11.29 ± 2.62 % dose/g | Biodistribution: Pancreas ([3]; 24 hrs (1 day)): 0.015 ± 0.004 % dose/g | Biodistribution: Skin ([3]; 24 hrs (1 day)): 0.059 ± 0.029 % dose/g | Biodistribution: Spleen ([3]; 24 hrs (1 day)): 0.047 ± 0.005 % dose/g | Biodistribution: Stomach ([3]; 24 hrs (1 day)): 0.076 ± 0.026 % dose/g | Biodistribution: Blood ([3]; 48 hrs (2 days)): 0.003 ± 0.002 % dose/g | Biodistribution: Bone ([3]; 48 hrs (2 days)): 0.030 ± 0.010 % dose/g | Biodistribution: Brain ([3]; 48 hrs (2 days)): 0.006 ± 0.002 % dose/g | Biodistribution: Heart ([3]; 48 hrs (2 days)): 0.010 ± 0.000 % dose/g | Biodistribution: Intestine ([3]; 48 hrs (2 days)): 0.059 ± 0.036 % dose/g | Biodistribution: Kidney ([3]; 48 hrs (2 days)): 2.359 ± 1.504 % dose/g | Biodistribution: Liver ([3]; 48 hrs (2 days)): 0.069 ± 0.067 % dose/g | Biodistribution: Lung ([3]; 48 hrs (2 days)): 0.032 ± 0.028 % dose/g | Biodistribution: Muscle ([3]; 48 hrs (2 days)): 0.006 ± 0.003 % dose/g | Biodistribution: PC3 tumor ([3]; 48 hrs (2 days)): 0.080 ± 0.034 % dose/g | Biodistribution: PIP PC3 tumor ([3]; 48 hrs (2 days)): 13.98 ± 6.41 % dose/g | Biodistribution: Pancreas ([3]; 48 hrs (2 days)): 0.011 ± 0.001 % dose/g | Biodistribution: Skin ([3]; 48 hrs (2 days)): 0.034 ± 0.015 % dose/g | Biodistribution: Spleen ([3]; 48 hrs (2 days)): 0.133 ± 0.173 % dose/g | Biodistribution: Stomach ([3]; 48 hrs (2 days)): 0.032 ± 0.014 % dose/g | Biodistribution: Blood ([3]; 96 hrs (4 days)): 0.001 ± 0.000 % dose/g | Biodistribution: Bone ([3]; 96 hrs (4 days)): 0.043 ± 0.038 % dose/g | Biodistribution: Brain ([3]; 96 hrs (4 days)): 0.006 ± 0.001 % dose/g | Biodistribution: Heart ([3]; 96 hrs (4 days)): 0.011 ± 0.006 % dose/g | Biodistribution: Intestine ([3]; 96 hrs (4 days)): 0.040 ± 0.028 % dose/g | Biodistribution: Kidney ([3]; 96 hrs (4 days)): 0.623 ± 0.072 % dose/g | Biodistribution: Liver ([3]; 96 hrs (4 days)): 0.031 ± 0.003 % dose/g | Biodistribution: Lung ([3]; 96 hrs (4 days)): 0.020 ± 0.009 % dose/g | Biodistribution: Muscle ([3]; 96 hrs (4 days)): 0.006 ± 0.002 % dose/g | Biodistribution: PC3 tumor ([3]; 96 hrs (4 days)): 0.047 ± 0.012 % dose/g | Biodistribution: PIP PC3 tumor ([3]; 96 hrs (4 days)): 6.90 ± 1.87 % dose/g | Biodistribution: Pancreas ([3]; 96 hrs (4 days)): 0.022 ± 0.011 % dose/g | Biodistribution: Skin ([3]; 96 hrs (4 days)): 0.032 ± 0.019 % dose/g | Biodistribution: Spleen ([3]; 96 hrs (4 days)): 0.033 ± 0.015 % dose/g | Biodistribution: Stomach ([3]; 96 hrs (4 days)): 0.030 ± 0.002 % dose/g | Biodistribution: Blood ([3]; 192 hrs (8 days)): 0.001 ± 0.000 % dose/g | Biodistribution: Bone ([3]; 192 hrs (8 days)): 0.042 ± 0.035 % dose/g | Biodistribution: Brain ([3]; 192 hrs (8 days)): 0.003 ± 0.001 % dose/g | Biodistribution: Heart ([3]; 192 hrs (8 days)): 0.005 ± 0.000 % dose/g | Biodistribution: Intestine ([3]; 192 hrs (8 days)): 0.162 ± 0.087 % dose/g | Biodistribution: Kidney ([3]; 192 hrs (8 days)): 0.177 ± 0.009 % dose/g | Biodistribution: Liver ([3]; 192 hrs (8 days)): 0.021 ± 0.005 % dose/g | Biodistribution: Lung ([3]; 192 hrs (8 days)): 0.006 ± 0.003 % dose/g | Biodistribution: Muscle ([3]; 192 hrs (8 days)): 0.003 ± 0.003 % dose/g | Biodistribution: PC3 tumor ([3]; 192 hrs (8 days)): 0.022 ± 0.002 % dose/g | Biodistribution: PIP PC3 tumor ([3]; 192 hrs (8 days)): 4.21 ± 1.03 % dose/g | Biodistribution: Pancreas ([3]; 192 hrs (8 days)): 0.003 ± 0.001 % dose/g | Biodistribution: Skin ([3]; 192 hrs (8 days)): 0.011 ± 0.003 % dose/g | Biodistribution: Spleen ([3]; 192 hrs (8 days)): 0.032 ± 0.010 % dose/g | Biodistribution: Stomach ([3]; 192 hrs (8 days)): 0.209 ± 0.131 % dose/g | Uptake in PC3 tumors (PSMA negative) versus PC-3 PIP tumors (PSMA positive) ([3]; mouse, in vivo): much lower | Stability of injected doses [4]: stable
